“And” between values parts separate entries of the source, which are not always exact repeats. Equal values may be shown once. Strand notation (5' to 3'): a small letter for the sugar, then the base; units joined by * are phosphorothioate-linked, units joined directly phosphodiester-linked; [ ] holds rarer units or linkages, { } end groups; capitals alone tell only the bases. [PN] = cyclic guanidine phosphoramidate internucleoside linkage; [ms] = mesyl phosphoramidate linkage; e = 2'-O-(2-methoxyethyl) (MOE); k = constrained ethyl (cEt); [5mC] = 5-methylcytosine; d = 2'-deoxy (DNA)
Columns and labels:
human APOE RNA [1] = experiment: Dose-dependent inhibition of human APOE RNA in HepG2 cells, electroporation, 50,000 cells per well, RT-PCR normalized to GAPDH (Example 4, Tables 8-10); format: cell-based; conditions: HepG2, electroporation, 24-hour treatment
In short: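 Readout is percent APOE RNA versus untreated controls, measured by RT-PCR (primer probe set RTS3073) and normalized to human GAPDH. Modified oligonucleotides were delivered by electroporation at varying doses into HepG2 cells plated at 50,000 per well.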

human APOE RNA [2] = experiment: Activity in APOE C57BL/6NTac-Apoeem7250 knock-in mice, single ICV bolus, 4 weeks (Example 10); format: in vivo; conditions: single ICV bolus 300 μg, 4 weeks post treatment, normalized to mouse Ppia
In short: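 Human APOE RNA, quantified by real-time RT-PCR with RTS3073 and normalized to mouse Ppia, was read in cortical brain and spinal cord 4 weeks post dosing. Dosing was a single ICV bolus of 300 μg per knock-in mouse; values are % of PBS-treated animals.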

human APOE RNA [3] = experiment: Duration of action study in APOE C57BL/6NTac-Apoeem7250 knock-in mice (Example 16); format: in vivo; conditions: 300 μg ICV
Experimental: Modified oligonucleotides described above were tested in the APOE C57BL/6NTac-Apoeem7250 knock-in mouse model described above.
APOE C57BL/6NTac-Apoeem7250 knock-in mice were divided into groups of 2-4 mice each. Each mouse received a single intracerebroventricular (ICV) bolus of 300 μg of modified oligonucleotide. A group of 2-4 mice received a single ICV bolus with PBS as a negative control.
Mice were sacrificed at various timepoints as indicated in the table below and RNA was extracted from cortical brain tissue and spinal cord for quantitative real-time RT-PCR analysis of RNA expression of APOE using primer probe set RTS3073 (described herein above). APOE RNA levels were normalized to mouse Ppia. Mouse Ppia was amplified using primer probe set m_cyclo24 (described herein above). Results are presented as percent human APOE RNA relative to the amount of human APOE RNA in PBS treated animals, (% control). Each experiment is identified in separate tables below.

human APOE RNA [4] = experiment: Activity in APOE C57BL/6NTac-Apoeem7250 knock-in mice, single ICV bolus, 8 weeks (Example 11); format: in vivo; conditions: single ICV bolus 300 μg, 8 weeks post treatment, normalized to mouse Ppia
In short: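 Cortical and spinal cord human APOE RNA quantified by RT-qPCR 8 weeks after a single 300 μg ICV dose in knock-in mice, Ppia-normalized. Values are percent of levels in PBS-treated animals.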

human APOE RNA [5] = experiment: Activity in APOE C57BL/6NTac-Apoeem7250 knock-in mice, single ICV bolus, 16 weeks (Example 12); format: in vivo; conditions: single ICV bolus 300 μg, 16 weeks post treatment, normalized to mouse Ppia
In short: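 A single 300 μg intracerebroventricular dose was given, with PBS-treated mice as reference; cortical and spinal cord tissue was taken 16 weeks later. RT-qPCR quantified human APOE RNA, Ppia-normalized, expressed relative to PBS animals (% control).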

Substance | APOE RNA (% UTC) (human APOE RNA [1]; 5 nM) | APOE RNA (% UTC) (human APOE RNA [1]; 13 nM) | APOE RNA (% UTC) (human APOE RNA [1]; 33 nM) | APOE RNA (% UTC) (human APOE RNA [1]; 82 nM) | APOE RNA (% UTC) (human APOE RNA [1]; 205 nM) | APOE RNA (% UTC) (human APOE RNA [1]; 512 nM) | APOE RNA (% UTC) (human APOE RNA [1]; 1,280 nM) | APOE RNA (% UTC) (human APOE RNA [1]; 3,200 nM) | APOE RNA (% UTC) (human APOE RNA [1]; 8,000 nM) | APOE RNA (% UTC) (human APOE RNA [1]; 20,000 nM) | IC50 (human APOE RNA [1]) | APOE RNA (% control) Cortex (human APOE RNA [2]) | APOE RNA (% control) Spinal Cord (human APOE RNA [2]) | APOE RNA (% control) Cortex (human APOE RNA [3]; 112 days post-dose) | APOE RNA (% control) Cortex (human APOE RNA [3]; 140 days post-dose) | APOE RNA (% control) Spinal Cord (human APOE RNA [3]; 112 days post-dose) | APOE RNA (% control) Spinal Cord (human APOE RNA [3]; 140 days post-dose) | APOE RNA (% control) Cortex (human APOE RNA [3]; 14 days post-dose) | APOE RNA (% control) Spinal Cord (human APOE RNA [3]; 14 days post-dose) | further results
1746803 (k[5mC]*dT[ms]dT[ms]kG*dG[ms]kT*dG[ms]dA[ms]dA[ms]dT*d[5mC]*dT*dT*dT*dA[ms]dT*kT*dA[ms]kA*kA; antisense) [Compound 1746803] | 93 % UTC | 83 % UTC | 84 % UTC | 114 % UTC | 68 % UTC | 61 % UTC | 31 % UTC | 29 % UTC | 22 % UTC | 39 % UTC | 1100 nM | 51 % control | 39 % control | 54 % control | 73 % control | 74 % control | 82 % control | – | – | –
1753989 (k[5mC]*dT[ms]kT*dG[ms]kG*dT*dG[ms]dA[ms]dA[ms]dT*d[5mC]*dT*dT*dT*dA[ms]kT*dT[ms]kA*dA[ms]kA; antisense) [Compound 1753989] | 113 % UTC | 108 % UTC | 102 % UTC | 79 % UTC | 94 % UTC | 76 % UTC | 49 % UTC | 33 % UTC | 25 % UTC | 16 % UTC | 1670 nM | 54 % control | 49 % control | 58 % control | 72 % control | 117 % control | 79 % control | – | – | –
1721309: 6-10-4 MOE gapmer CTTGGTGAATCTTTATTAAA, linkages s[pn][pn][pn]oossssssssss[pn]ss (e[5mC]*eT[PN]eT[PN]eG[PN]eGeTdG*dA*dA*dT*d[5mC]*dT*dT*dT*dA*dT*eT[PN]eA*eA*eA) [compound 1721309] | – | – | – | – | – | – | – | – | – | – | – | – | – | 93 % control | – | 39 % control | – | 45 % control | 34 % control | –
1721303: 6-10-4 MOE gapmer TTGGTGAATCTTTATTAAAC, linkages s[pn][pn][pn]oossssssssssoss (eT*eT[PN]eG[PN]eG[PN]eTeGdA*dA*dT*d[5mC]*dT*dT*dT*dA*dT*dT*eAeA*eA*e[5mC]) [compound 1721303] | – | – | – | – | – | – | – | – | – | – | – | – | – | 75 % control | – | 40 % control | – | 36 % control | 32 % control | –
1746790 (k[5mC]*dT[ms]kT*dG[ms]dG[ms]kT*dG[ms]dA[ms]dA[ms]dT*d[5mC]*dT*dT*dT*dA[ms]dT*kT*kA*dA[ms]kA; antisense) [Compound 1746790] | 104 % UTC | 133 % UTC | 94 % UTC | 112 % UTC | 89 % UTC | 63 % UTC | 20 % UTC | 24 % UTC | 15 % UTC | 8 % UTC | 750 nM | 53 % control | 61 % control | 75 % control | 77 % control | 62 % control | 108 % control | – | – | –
1721306: 6-10-4 MOE gapmer TTGGTGAATCTTTATTAAAC, linkages s[pn][pn][pn]oosssssszzss[n]ss (as printed) (sugars from the 5' end e6 d10 e4, all C 5-methyl, backbone not given here; further chemistry not fully specified) [compound 1721306] | – | – | – | – | – | – | – | – | – | – | – | – | – | 89 % control | – | 60 % control | – | 58 % control | 63 % control | –
1721304: 6-10-4 MOE gapmer TTGGTGAATCTTTATTAAAC, linkages s[pn][pn][pn]oosssssszzssoss (eT*eT[PN]eG[PN]eG[PN]eTeGdA*dA*dT*d[5mC]*dT*dT*dT[ms]dA[ms]dT*dT*eAeA*eA*e[5mC]) [compound 1721304] | – | – | – | – | – | – | – | – | – | – | – | – | – | 67 % control | – | 42 % control | – | 46 % control | 45 % control | –
1721310: 6-10-4 MOE gapmer CTTGGTGAATCTTTATTAAA, linkages s[pn][pn][pn]oossssssszzs[pn]ss (e[5mC]*eT[PN]eT[PN]eG[PN]eGeTdG*dA*dA*dT*d[5mC]*dT*dT*dT[ms]dA[ms]dT*eT[PN]eA*eA*eA) [compound 1721310] | – | – | – | – | – | – | – | – | – | – | – | – | – | 88 % control | – | 65 % control | – | 35 % control | 38 % control | –
1652901: 6-10-4 MOE gapmer TTGGTGAATCTTTATTAAAC, linkages sooooossssssssssoss (antisense eT*eTeGeGeTeGdA*dA*dT*d[5mC]*dT*dT*dT*dA*dT*dT*eAeA*eA*e[5mC]) [compound 1652901] | – | – | – | – | – | – | – | – | – | – | – | – | – | 90 % control | – | 51 % control | – | 43 % control | 33 % control | APOE RNA (% control) Cortex (human APOE RNA [4]; cortex): 47 % control and 49 % control; APOE RNA (% control) Spinal Cord (human APOE RNA [4]; spinal cord): 18 % control and 27 % control; APOE RNA (% control) Cortex (human APOE RNA [5]; cortex): 104 % control; APOE RNA (% control) Spinal Cord (human APOE RNA [5]; spinal cord): 61 % control

Source: patent publication US20250353873A1, “COMPOUNDS AND METHODS FOR MODULATING APOE EXPRESSION” (Ionis Pharmaceuticals, Inc., priority 2024, published 2025)
